Experimental data: patent US11053207B2, “Indoleamine-2,3-dioxygenase inhibitor and preparation method therefor” (SHANGHAI INSTITUTE OF ORGANIC CHEMISTRY, CHINESE ACADEMY OF …, priority 2014, dated 2021)
Values joined by “and” are separate entries in the source; they are usually repeats but may differ in a detail not shown here. Equal values may be shown once.

Columns and labels:
Hela cells = assay: Test for cell activity (Hela cells, interferon γ, kynurenine read at 480 nm); format: cell-based; conditions: human interferon γ 50 ng/mL, 48 h
Procedure: Hela cells (100 μL) were inoculated on a 96-well plate at an inoculation amount of 5×10^3 per well and grown overnight. The next day, after the compound was diluted, 1 μL was added to a 96-well plate and then 100 μL of medium containing human interferon y (final concentration of 50 ng/mL) was added to the 96-well plate to allow the final volume to be 200 μL. 48 h after incubating, 140 μL of supernatant in each well was transferred to a new 96-well plate. 10 μL of 6.1 N trichloroacetic acid was added to each well and mixed and incubated at 50° C. for 30 min, IDO catalyzed N-formyl canine urea to become canine urea. The reaction mixture was centrifuged at 2500 rpm for 10 minutes to remove the precipitate. 100 μL of supernatant in each well was transferred to a new 96-well plate and mixed with 100 μL of 2% dimethylaminobenzaldehyde acetic acid solution. After the canine urea was separated, the value was measured at 480 nm using a SPECTRAmax i3 reader.

[1] = Pharmacokinetics of compound 6 in ICR mice after oral compound 13 (prodrug); format: in vivo; conditions: for AUMC0-inf / AUMC0-t / Kel / MRTPO: compound 6 in ICR mice after oral compound 13 30 mg/kg
Procedure: Compound 13 was orally administered to ICR mice. Blood samples were collected at different time points. LC-MS/MS was used to determine the concentration of compound 6 in the plasma of mice after administration of the test substance, and the relevant pharmacokinetic parameters were calculated, the pharmacological properties of compound 6 in mice was investigated.
Experimental design: 3 ICR mice, provided by Suzhou Zhaoyan New Drug Research and Development Co., Ltd.; the experiment was carried out according to Table 6.
Each animal was anesthetized with isoflurane and thereafter about 25 μL of blood was collected through the eyepit, anticoagulated with EDTAK2, the collecting time points were: before administration of the test substance (0 hr) and 15 min, 30 min, 1 h, 2 h, 4 h, 6 h, 8 h and 24 h after administration of the test substance. Blood samples were collected and placed on ice and the plasma was centrifuged and separated within 1 hour (centrifugal conditions: 5000 rpm, 10 minutes, 4° C.). The collected plasma was stored at −20° C. before analysis.
Data acquisition and control system software was the Analyst1.5.1 software (Applied Biosystem). The sample peak integral method was automatic integration; The ratio of the peak area of the sample and the peak area of the internal standard was taken as the index and the concentration of the sample was regressed. Regression method: linear regression, the weight coefficient was 1/X^2. Pharmacokinetic parameters were analyzed with a non-compartmental model using WinNonlin Professional v6.3 (Pharsight, USA). Cmax is the measured maximum blood concentration, and the area under the blood concentration-time curve AUC(0→t) was calculated from the trapezoidal method, and Tmax is the peak blood concentration time after administration. The experimental data is expressed as “mean±SD, n≥3” or “mean” (mean, n=2).

**Q.** With `CS(=O)(CCNc1nonc1/C(=N/O)Nc1ccc(F)c(Br)c1)=NC#N` (racemic) [compound 6, (±)(Z)—N-(3-bromo-4-fluorophenyl)-N′-hydroxy-4-((2-(thio-methylsulfoxidecyanoimine)ethyl)amino)-1,2,5-oxadiazole-3-carboxamidine] as the compound, how does the IC50 (Hela cells) read?
**A.** 1.8 nM

**Q.** And the “pharmacokinetic parameters (overall judgement)” value ([1]; ICR mice, after oral compound 13)?
**A.** excellent pharmacokinetic parameters

**Q.** And the AUMC0-inf ([1]; individual mouse)?
**A.** 46297 hr*hr*ng/mL and 13854 hr*hr*ng/mL and 21447 hr*hr*ng/mL

**Q.** And the AUMC0-t ([1]; individual mouse)?
**A.** 19793 hr*hr*ng/mL and 12189 hr*hr*ng/mL and 16309 hr*hr*ng/mL

**Q.** And the Kel ([1]; individual mouse)?
**A.** 0.0695 h⁻¹ and 0.156 h⁻¹ and 0.123 h⁻¹

**Q.** And the MRTPO ([1]; individual mouse)?
**A.** 15.0 h and 6.25 h and 7.99 h

**Q.** What about the AUMC0-inf ([1]; mean) of the same compound?
**A.** 27199 hr*hr*ng/mL

**Q.** What about the AUMC0-t ([1]; mean) of the same compound?
**A.** 16097 hr*hr*ng/mL

**Q.** And the Kel ([1]; mean)?
**A.** 0.116 h⁻¹

**Q.** And the MRTPO ([1]; mean)?
**A.** 9.76 ± 4.64 h and 9.76 h
